According to US20230277680A1, “CONJUGATE OF A SINGLE DOMAIN ANTIBODY, A SAPONIN AND AN EFFECTOR MOLECULE, PHARMACEUTICAL COMPOSITION COMPRISING THE SAME, THERAPEUTIC USE OF SAID PHARMACEUTICAL COMPOSITION” (SAPREME TECHNOLOGIES B.V., priority 2020, published 2023):

Legend:
SK-BR-3 cells = assay: Cell viability (MTS) assay, cell killing; assay type: cell-based, human; settings: read-out: [SO1861] IC50 cell killing; SKBR3; + fixed 1.5 μM EGF-dianthin
Description: (§1) After treatment the cells were incubated for 72 hr at 37° C. before the cell viability was determined by a MTS-assay, performed according to the manufacturer's instruction (CellTiter 96® AQueous One Solution Cell Proliferation Assay, Promega). Briefly, the MTS solution was diluted 20× in DMEM without phenol red (PAN-Biotech GmbH) supplemented with 10% FBS. The cells were washed once with 200 μL/PBS well, after which 100 μL diluted MTS solution was added/well. The plate was incubated for approximately 20-30 minutes at 37° C. Subsequently, the OD at 492 nm was measured on a Thermo Scientific Multiskan FC plate reader (Thermo Scientific). For quantification the background signal of ‘medium only’ wells was subtracted from all other wells, before the cell viability percentage of treated/untreated cells was calculated, by dividing the background corrected signal of treated wells over the background corrected signal of the untreated wells (×100). […]
(§2) After treatment the cells were incubated for 72 hr at 37° C. before the cell viability was determined by a MTS-assay, performed according to the manufacturer's instruction (CellTiter 96® AQueous One Solution Cell Proliferation Assay, Promega). […] Subsequently, the optical density at 492 nm was measured on a Thermo Scientific Multiskan FC plate reader (Thermo Scientific). […]

A431 cells = assay: Cell viability (MTS) assay, cell killing; assay type: cell-based, human; settings: read-out: [SO1861] IC50 cell killing, + fixed 10 μM cetuximab-saporin, calculated on concentration SO1861
Description: as §1, §2

Work on `CC(=O)O[C@H]1[C@H](O[C@@H]2OC[C@@H](O)[C@H](O)[C@H]2O)[C@@H](O)[C@H](O[C@@H]2[C@H](O)[C@@H](O[C@@H]3O[C@@H](C)[C@H](O[C@@H]4OC[C@@H](O)[C@H](O[C@@H]5OC[C@@H](O)[C@H](O)[C@H]5O)[C@H]4O)[C@@H](O)[C@H]3O)[C@H](OC(=O)[C@]34CCC(C)(C)C[C@H]3C3=CC[C@@H]5[C@@]6(C)CC[C@H](O[C@H]7O[C@H](C(=O)O)[C@@H](O)[C@H](O[C@@H]8OC[C@@H](O)[C@H](O)[C@H]8O)[C@H]7O[C@@H]7O[C@H](CO)[C@H](O)[C@H](O)[C@H]7O)[C@@](C)(C=O)[C@@H]6CC[C@@]5(C)[C@]3(C)C[C@H]4O)O[C@@H]2C)O[C@@H]1C` [SO1861] yielded an IC50 (SK-BR-3 cells) of 800 nM and an IC50 (A431 cells) of 600 nM.
